Measured values reported in patent US20070264679A1, “Method for analyzing the activity of lipoxygenase using a water-soluble substrate” (Chungnam National University Industry Collaboration …, priority 2006, published 2007).

Tests used:
[1] = molecular target: T1, soybean LOX-1 (Glycine max, UniProt P08170); assay: Kinetics of oxygenation of arachidonic acid or arachidonoyl-lysophospholipids by soybean LOX-1; format: biochemical; settings: soybean LOX-1 2.5 units/ml; for Km: 50 mM borax buffer pH 9.0, 25° C.; for Vm: 50 mM borax buffer pH 9.0, unit = one nanomole conjugated diene per min
T1 construct: purchased Sigma-Aldrich Corp (St. Louis, Mo., USA) lipoxidase Type I-B
T1 sequence (P08170 1-839): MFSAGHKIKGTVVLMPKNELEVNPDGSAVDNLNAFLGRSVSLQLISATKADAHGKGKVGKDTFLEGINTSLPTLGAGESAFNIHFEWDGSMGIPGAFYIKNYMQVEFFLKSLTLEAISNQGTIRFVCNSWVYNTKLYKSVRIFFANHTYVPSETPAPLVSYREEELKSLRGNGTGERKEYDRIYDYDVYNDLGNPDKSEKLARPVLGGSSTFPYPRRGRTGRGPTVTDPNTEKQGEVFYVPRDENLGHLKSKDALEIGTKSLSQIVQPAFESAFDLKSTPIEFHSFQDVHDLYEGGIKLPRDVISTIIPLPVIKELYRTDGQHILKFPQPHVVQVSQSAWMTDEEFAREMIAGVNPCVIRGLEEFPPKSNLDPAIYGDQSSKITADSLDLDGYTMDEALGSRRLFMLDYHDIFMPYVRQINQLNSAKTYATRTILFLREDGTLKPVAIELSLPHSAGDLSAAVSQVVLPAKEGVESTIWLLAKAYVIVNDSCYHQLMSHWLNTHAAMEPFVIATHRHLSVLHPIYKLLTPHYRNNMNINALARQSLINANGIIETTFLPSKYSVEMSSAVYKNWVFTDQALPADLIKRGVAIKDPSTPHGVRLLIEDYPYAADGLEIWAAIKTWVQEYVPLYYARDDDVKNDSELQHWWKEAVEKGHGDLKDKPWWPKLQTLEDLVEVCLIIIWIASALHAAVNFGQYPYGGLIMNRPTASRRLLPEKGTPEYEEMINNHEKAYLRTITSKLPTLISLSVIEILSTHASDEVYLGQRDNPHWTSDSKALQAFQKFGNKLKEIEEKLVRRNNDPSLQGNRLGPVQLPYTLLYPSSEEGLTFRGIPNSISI
Procedure: Activities of various LOXs were monitored by measuring the increase in absorbance at 234 nm due to the formation of hydroperoxide (ε234=25,000 M^−1 cm^−1) at 25° C. as described before (Smith et al, J. Biol. Chem. 247 (1972) 1038-1047). One unit is defined as the amount of LOXs that can produce one nanomole of conjugated diene per min. The reaction mixture (500 μl) included reticulocyte LOX (2 units/ml) in 50 mM phosphate buffer (pH 7.4), porcine leukocyte LOX (1 unit/ml) in 100 mM phosphate buffer (pH 7.5) containing 5 mM EDTA and 0.03% Tween 20, or soybean LOX-1 (2.5 units/ml) in 50 mM borax buffer (pH 9.0) at 25° C. The reactions were started by including each substrate (100 μM) into the above reaction mixture.
Reticulocyte LOX (2 units/ml), leukocyte LOX (1 units/ml) or soybean LOX-1 (2.5 units/ml) was incubated with each arachidonoyl derivative substrate of various concentrations as described above. The values of kinetic parameters were obtained according to Lineweaver Burke plot analyses as described before (Barroso et al, J. Chromatogr. B. Analyt. Technol. Biomed. Life. Sci. 814 (2005) 21-28).

[2] = molecular target: T2, soybean lipoxygenase-1 (LOX-1) (Glycine max, UniProt P08170); assay: Kinetics of oxygenation of linoleic acid, soybean lysoPC or linoleoyl-lysoPC by soybean LOX-1 (absorbance at 234 nm); format: biochemical; settings: for Km: 50 mM borax buffer pH 9.0, 25° C., Lineweaver Burke plot; for Vm: soybean LOX-1, 50 mM borax buffer pH 9.0, 25° C., unit = one micromole conjugated diene per min
T2 construct: purchased Sigma-Aldrich Corp (St. Louis, Mo., USA) lipoxidase Type I-B
T2 sequence (P08170 1-839): T1 sequence (P08170 1-839)
Procedure: Lipoxygenase-1 (LOX-1) activity was monitored at 25° C. by measuring the increase in absorbance at 234 nm due to the formation of hydroperoxide (ε234=25,000 M^−1 cm^−1) as previously reported (Axelrod et al, Methods Enzymol. 71 (1981) 441-451; Egmond et al, Eur. J. Biochem. 61 (1976) 93-100). […] One unit is defined as the amount of LOX-1 that can produce one micromole of conjugated diene per min.
LOX-1 was purified from soy bean lipoxidase preparation (Type I-B) according to the method of Finazzi Agro et al (Finazzi-Agro et al, Biochim. Biophys. Acta 326 (1973) 462-470). Briefly, soybean LOX-1 (100 mg) was dissolved in 0.1 M phosphate buffer (pH 6.8), and applied to DEAE Sephacel (1.5×25 cm). […] Protein amount was determined according to Lowry method (O. H. Lowry, N. J. Rosenbrough, A. L. Farr, R. J. Randall, J. Biol. Chem. 193 (1951) 265-275).
Next, the effect of linoleoyl-lysoPC concentration on LOX-1-catalyzed oxygenation of linoleoyl-lysoPC was examined.

[3] = molecular target: T3, Reticulocyte LOX (Oryctolagus cuniculus, UniProt P12530); assay: Kinetics of oxygenation of linoleoylated substrates by reticulocyte LOX; format: biochemical, Rabbit; settings: reticulocyte LOX 8.2 units/ml, 50 mM phosphate buffer pH 7.4, 25° C.; for Km: substrate 3-100 μM
T3 construct: purchased Biomol Inc. (Plymouth Meeting, Pa., USA)
T3 sequence (P12530 1-663): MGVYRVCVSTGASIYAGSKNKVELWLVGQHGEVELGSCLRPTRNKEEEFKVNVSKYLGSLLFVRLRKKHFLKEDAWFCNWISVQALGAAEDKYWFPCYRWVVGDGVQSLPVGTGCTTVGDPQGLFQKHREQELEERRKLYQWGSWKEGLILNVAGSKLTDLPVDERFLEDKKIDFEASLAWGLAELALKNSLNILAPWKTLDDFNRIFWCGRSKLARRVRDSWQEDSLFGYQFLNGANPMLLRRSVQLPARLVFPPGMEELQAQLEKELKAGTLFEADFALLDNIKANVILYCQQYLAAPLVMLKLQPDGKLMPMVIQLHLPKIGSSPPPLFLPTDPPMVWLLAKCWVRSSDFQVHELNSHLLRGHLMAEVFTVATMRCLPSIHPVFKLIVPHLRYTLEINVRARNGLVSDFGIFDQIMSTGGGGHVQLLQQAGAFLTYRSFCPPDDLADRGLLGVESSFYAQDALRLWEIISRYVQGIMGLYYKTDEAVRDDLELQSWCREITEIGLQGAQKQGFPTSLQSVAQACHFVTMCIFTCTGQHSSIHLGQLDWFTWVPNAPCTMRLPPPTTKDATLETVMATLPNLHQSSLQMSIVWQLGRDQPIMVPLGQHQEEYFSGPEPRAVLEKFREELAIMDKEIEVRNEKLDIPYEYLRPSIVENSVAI
Text: Data were expressed as means ±S.D. of results from at least three independent experiments.

Compound	Km [1] [µM]	Km ([1]; listed as arachidonoyl-lysoPC) [µM]	Vm [1] [units/μg]	Vm ([1]; listed as arachidonoyl-lysoPC) [units/μg]	Km [2] [µM]	Vm [2] [units/mg]	Vm [3] [units/mg]	Km [3] [µM]	Vm ([2]; listed as linoleoyl-lysoPC) [units/mg]
CCCCC/C=C\C/C=C\C/C=C\C/C=C\CCCC(=O)OCC(O)COP(=O)([O-])OCC[N+](C)(C)C (stereo not shown) [Arachidonoyl-lysoPC, 1-Arachidonoyl lysophosphatidylcholine]	5.37 ± 1.6	5.4	97.0 ± 8.2	97.0	–	–	–	–	–
CCCCC/C=C\C/C=C\CCCCCCCC(=O)O [Linoleic acid, linoleic acid]	–	–	–	–	12 ± 0.7	114.3 ± 6.0	545 ± 5	12.1 ± 0.8	–
CCCCC/C=C\C/C=C\CCCCCCCC(=O)OCC(O)COP(=O)([O-])OCC[N+](C)(C)C (stereo not shown) [Linoleoyl-lysoPC, 1-linoleoyl Lysophosphatidylcholine]	–	–	–	–	12.9	167.5 ± 10.4	1622 ± 19	17.5 ± 0.9	167.5
